Measurements taken from publication PMC9041133 (RSC Advances, 2021).

What was measured:
[1] = Pharmacokinetic study in healthy volunteers after oral fixed-combination tablet, plasma measured by USA-DMSPE-HPLC-UV; assay type: in vivo; details: human; for half-life: read-out: T ½ (converted)
Procedure: First of all, some frozen human plasma samples were allowed to be thawed at room temperature (23 ± 0.5 °C) and afterwards they were placed into centrifuge tubes. Acetonitrile was applied as a deproteinizing agent to precipitate all proteins existing in plasma. In this regard, 1.9 mL of plasma was spiked with 100.0 μL of working standard solutions to get the suitable concentration level of DIC and FEB, then, to all tubes, 2.0 mL acetonitrile was added. All the biological samples were vortexed for 3 min for complete mixing and followed with centrifugation at 5000 rpm for 4 min. For evaporating the acetonitrile content of each real sample, the tube containing the spiked sample was placed under a stream of nitrogen. To adjust the pH of media, 4.0 mL buffer solution at pH 5.0 was added to real sample. Eventually, 5.0 mL of the resultant spiked sample was subjected to the extraction and measurement protocols for further evaluations.
5.0 mL of the prepared spiked human plasma was placed into a centrifuge tube and then 20.0 mg of synthesized hybrid sorbent was added to the tube. For ensuring the complete dispersion of the supermagnetic hybrid sorbent into the solution, ultrasonic irradiation was utilized for 6 min. As the sorbent is dispersed through the sample, the target drugs are adsorbed on the surface of it. Subsequently, an external magnetic field composed of neodymium (Nd), iron (Fe) and boron (B) (0.8 tesla) was applied to separate the hybrid sorbent from media and the free drug sample was removed by a pipette. In order to desorb the target drugs from the extractor, it was washed with 1.5 mL with acetonitrile in three steps (0.5 mL in each step) while ultrasonic irradiation was applied for 3 min. Nd-Fe-B-Nd magnet was used again in this step and then the solution was separated and dried under a stream of nitrogen. After collecting the remaining material, which contains DIC and FEB, was dissolved in 50.0 μL of the mobile phase of HPLC and 20.0 μL of it was injected into the separation column and further measurements were carried out.
The volunteer's blood were collected after 0 to 4 and 8, 12 and 24 h of taking the drug and the samples were transferred to the polypropylene tubes containing ethylenediaminetetraacetic acid and centrifuged to achieve the required human plasma, after that the samples were kept at −18 °C. […] The samples were analyzed by means of the current method and the average concentration of each drug versus time was drawn. In this assessment, some major pharmacokinetic features including Tmax, Cmax, AUC0–t, AUC0–∞, and T½ were calculated and the results were summarized in Table 3.

[2] = set-up: method as in doi:10.1016/j.microc.2019.03.022, PMID 28953473; details: reported values; cited from earlier work

Row | SMILES | Tmax [1] [h] | half-life [1] [h] | pKa [2]
1 | O=C(O)Cc1ccccc1Nc1c(Cl)cccc1Cl [Diclofenac, 2-(2,6-dichloranilino)phenylacetic acid] | 2.88 ± 0.3 | 5.1 ± 1.1 | 
2 | Cc1nc(-c2ccc(OCC(C)C)c(C#N)c2)sc1C(=O)O [Febuxostat, 2-(3-cyano-4-isobutoxyphenyl)-4-methyl-1,3-thiazole-5-carboxylic acid] | 3.15 ± 0.27 | 6.3 ± 1.5 | 3.3
